According to US6335350B1, “Acetamide and substituted acetamide-containing thiourea inhibitors of herpes viruses” (American Home Products Corporation, priority 1998, dated 2002):
Values after ≈ are worked out from the molar mass of the structure shown.

Experiments:
HCMV wild-type = experiment: HCMV yield assay; type: cell-based, human cytomegalovirus; conditions: human foreskin fibroblasts; for IC50: Human betaherpesvirus 5, Fibroblast, read-out: IC50 Ug/ml HCMV
Procedure, shortened: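 Value is the compound amount cutting virus yield titer by 50% (IC50) or 90% (IC90). Human foreskin fibroblasts infected with wild-type HCMV (MOI typically 0.2) under varying compound; progeny harvested day 3, titered compound-free on fibroblasts, plaques scored at 2 weeks.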

HSV-1 = experiment: HSV Antiviral (ELISA) Assay; type: cell-based, herpes simplex virus type 1; conditions: Vero cells, HSV-1; for IC50: Human alphaherpesvirus 1, Vero, read-out: IC50 Ug/ml HSV
Procedure, shortened: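 Replication measured as glycoprotein D signal in fixed cells: anti-gD antibody plus β-galactosidase-linked secondary, fluorogenic substrate read at 365/450 nm. Vero cells (2% FBS DMEM) received compound 30 min pre-infection, HSV-1 MOI 0.006, ~24 h incubation; IC50 relative to no-compound fluorescence.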

VZV strain Ellen = experiment: VZV Antiviral (ELISA) Assay; type: cell-based, varicella-zoster virus; conditions: human foreskin fibroblast cells; for IC50 / inhibition at 10 µg/mL: Human alphaherpesvirus 3, Fibroblast; for IC50: read-out: IC50 Ug/ml VZV; for inhibition at 10 µg/mL: read-out: % inhibition 10 ug/ml VZV, 10 ug/ml
Procedure, shortened: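 Low-MOI (<0.1) Ellen infection of HFF overnight; cell mix plated 3.5×10^4/well with compound, DMEM + 2% FBS, 3 d, 37° C, 5% CO2. Fix, anti-gpII mAb ELISA, MUG substrate, fluorescence. IC50 vs compound-free signal.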

Compound	IC50 (HCMV wild-type) [µg/mL]	IC50 (HSV-1) [µg/mL]	IC50 (VZV strain Ellen) [µg/mL]	inhibition at 10 µg/mL (VZV strain Ellen) [%]	IC50 Ug/ml HCMV (HCMV wild-type) [Ug/ml]	IC50 Ug/ml HSV (HSV-1) [Ug/ml]	% inhibition 10 ug/ml VZV (VZV strain Ellen) [%]	IC50 Ug/ml VZV (VZV strain Ellen) [Ug/ml]
CC(=O)Nc1ccc(NC(=S)Nc2ccc(N(CCO)CCO)c(Cl)c2)cc1 [Example 905, N-[4-(3-{4-[Bis-(2-hydroxy-ethyl)-amino]-3-chloro-phenyl}-thioureido)-phenyl]-acetamide]	> 50	> 50	> 10	36				
CCCCCCN(C)c1ccc(NC(=S)Nc2ccc(NC(C)=O)cc2)cc1Cl [Example 906, N-(4-{3-[3-Chloro-4-(hexyl-methyl-amino)-phenyl]-thioureido}-phenyl)-acetamide]	1.5 (≈ 3.46 µM)	> 10	> 10	32				
CC(=O)Nc1ccc(NC(=S)Nc2ccc(N(C)CC(C)C)c(Cl)c2)cc1 [Example 907, N-(4-{3-[3-Chloro-4-(isobutyl-methyl-amino)-phenyl]-thioureido}-phenyl)-acetamide]	3 (≈ 7.41 µM)	> 10	> 10	19				
CC(=O)Nc1ccc(NC(=S)Nc2ccc(C(F)(F)F)c(Cl)c2)cc1 [Example 908, N-{4-[3-(3-Chloro-4-trifluoromethyl-phenyl)-thioureido]-phenyl}-acetamide]	0.6 (≈ 1.55 µM)	> 10	> 10	36				
CC(=O)Nc1ccc(NC(=S)Nc2ccc(-c3ccno3)c(Cl)c2)cc1 [Example 924, N-{4-[3-(3-Chloro-4-isoxazol-5-yl-phenyl)-thioureido]-phenyl}-acetamide]	0.9 (≈ 2.33 µM)	> 10	> 10	4				
CC(=O)Nc1ccc(NC(=S)Nc2ccc(-c3cc[nH]n3)c(Cl)c2)cc1 [Example 925, N-(4-{3-[3-Chloro-4-(1H-pyrazol-3-yl)-phenyl]-thioureido}-phenyl)-acetamide]	3.5 (≈ 9.07 µM)	> 10	> 10	32				
CC(=O)Nc1ccc(NC(=S)Nc2cccc(Cl)c2Cl)cc1 [Example 926, N-{4-[3-(2,3-Dichloro-phenyl)-thioureido]-phenyl}-acetamide]	10 (≈ 28.2 µM)	> 10	> 10	16				
CC(=O)Nc1ccc(NC(=S)Nc2cc(Cl)ccc2Cl)cc1 [Example 930, N-{4-[3-(2,5-Dichloro-phenyl)-thioureido]-phenyl}-acetamide]	> 10	10 (≈ 28.2 µM)	> 10	42				
CC(=O)Nc1ccc(NC(=S)Nc2cc(Cl)cc(Cl)c2)cc1 [Example 933, N-{4-[3-(3,5-Dichloro-phenyl)-thioureido]-phenyl}-acetamide]	1.2 (≈ 3.39 µM)	> 10	> 10	21				
CC(=O)Nc1ccc(NC(=S)Nc2cc(Cl)c(Cl)c(Cl)c2)cc1 [Example 936, N-{4-[3-(3,4,5-Trichloro-phenyl)-thioureido]-phenyl}-acetamide]	1 (≈ 2.57 µM)	1.5 (≈ 3.86 µM)	> 10	51				
N-{4-[3-(4-Acetylamino-phenyl)-thioureido]-2-chloro-phenyl}-2-dipropylamino-acetamide [Example 410]					>10	>10	26	>10
N-{4-[3-(4-Acetylamino-phenyl)-thioureido]-2-chloro-phenyl}-2-pyrrolidin-1-yl-acetamide [Example 415]					>10	>10	26	4.5
N-{4-[3-(4-Acetylamino-phenyl)-thioureido]-2-chloro-phenyl}-2-thiomorpholin-4-yl-acetamide [Example 405]					>10	>10	83	13
N-{4-[3-(5-Chloro-2,4-dimethoxy-phenyl)-thioureido]-3-methoxy-phenyl}-acetamide [Example 388]					>10	0.6	52	>10
